target: T1, DNA (cytosine-5)-methyltransferase 3A (Homo sapiens, UniProt Q9Y6K1); test: Inhibition of human DNMT3A catalytic domain using AdoMet assessed as reduction of methylation in 5'-biotin/3' 6-carboxyfluorescein labeled DNA duplex at CpG site at 32 uM after 1 hr by fluorescence assay relative to control
T1 sequence (Q9Y6K1 whole entry, looked up, the tested form may be a part): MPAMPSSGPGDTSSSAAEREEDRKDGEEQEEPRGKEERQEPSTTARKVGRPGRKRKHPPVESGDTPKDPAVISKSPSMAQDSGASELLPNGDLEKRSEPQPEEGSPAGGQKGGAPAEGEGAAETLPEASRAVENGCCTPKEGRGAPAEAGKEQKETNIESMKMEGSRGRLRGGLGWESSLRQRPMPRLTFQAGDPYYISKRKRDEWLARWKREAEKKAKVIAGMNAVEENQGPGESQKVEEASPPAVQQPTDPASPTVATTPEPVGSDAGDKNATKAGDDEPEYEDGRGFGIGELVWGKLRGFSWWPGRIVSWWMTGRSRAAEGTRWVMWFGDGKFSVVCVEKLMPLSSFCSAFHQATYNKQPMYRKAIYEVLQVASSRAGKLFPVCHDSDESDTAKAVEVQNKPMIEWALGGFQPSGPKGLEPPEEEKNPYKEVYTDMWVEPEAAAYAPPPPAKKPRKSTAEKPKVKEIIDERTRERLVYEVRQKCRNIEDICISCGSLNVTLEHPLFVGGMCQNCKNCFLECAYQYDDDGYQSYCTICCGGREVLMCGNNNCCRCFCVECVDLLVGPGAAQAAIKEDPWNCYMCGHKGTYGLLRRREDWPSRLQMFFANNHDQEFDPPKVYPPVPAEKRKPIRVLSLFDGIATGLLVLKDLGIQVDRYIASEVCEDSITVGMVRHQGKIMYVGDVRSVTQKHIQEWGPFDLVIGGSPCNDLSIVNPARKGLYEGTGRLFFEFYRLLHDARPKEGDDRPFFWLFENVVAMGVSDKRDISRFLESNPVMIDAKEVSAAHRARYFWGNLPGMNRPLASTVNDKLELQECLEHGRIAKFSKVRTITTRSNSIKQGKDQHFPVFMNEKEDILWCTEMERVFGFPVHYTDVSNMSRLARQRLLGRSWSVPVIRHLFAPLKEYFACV

inhibition [%]	SMILES
62	Clc1ccc2c(NCCN3CCC(COc4ccc5c(NCCCc6ccccc6)ncnc5c4)CC3)ccnc2c1
96	Nc1ccc(CCNc2ncnc3cc(OCC4CCN(CCNc5ccnc6ccccc56)CC4)ccc23)cc1
60	c1ccc(CCCNc2ncnc3cc(OCC4CCN(CCNc5ccc6ncccc6c5)CC4)ccc23)cc1
60	c1ccc(CCCNc2ncnc3cc(OCC4CCN(CCNc5cccc6ncccc56)CC4)ccc23)cc1
0	FC(F)(F)c1cc(NCCN2CCC(COc3ccc4c(NCCCc5ccccc5)ncnc4c3)CC2)c2ccccc2n1
93	NS(=O)(=O)c1ccc(CCNc2ncnc3cc(OCC4CCN(CCNc5ccnc6ccccc56)CC4)ccc23)cc1
88	c1ccc(CN2CCN(CCNc3ncnc4cc(OCC5CCN(CCNc6ccnc7ccccc67)CC5)ccc34)CC2)cc1
44	COCn1ccc(NCCN2CCC(COc3ccc4c(NCCCc5ccccc5)ncnc4c3)CC2)nc1=O
72	Cc1cc(Nc2ccc(NC(=O)c3ccc(Nc4ccnc5ccccc45)cc3)cc2)nc(N)n1
74	O=[N+]([O-])c1ccc(CCNc2ncnc3cc(OCC4CCN(CCNc5ccnc6ccccc56)CC4)ccc23)cc1
0	c1ccc(CCCNc2ncnc3cc(OCC4CCN(c5ccnc6ccccc56)CC4)ccc23)cc1
69	CCCNc1ncnc2cc(OCC3CCN(CCNc4ccnc5ccccc45)CC3)ccc12
82	Fc1ccc2nccc(NCCN3CCC(COc4ccc5c(NCCCc6ccccc6)ncnc5c4)CC3)c2c1
85	c1ccc(CCCNc2ncnc3cc(OCCCNCCNc4ccnc5ccccc45)ccc23)cc1
93	Oc1cc2nccc(NCCN3CCC(COc4ccc5c(NCCCc6ccccc6)ncnc5c4)CC3)c2cc1O
90	Cn1ccc2cc(NCCN3CCC(COc4ccc5c(NCCCc6ccccc6)ncnc5c4)CC3)ccc21
72	c1ccc(CCCNc2ncnc3cc(OCC4CCN(CCNc5ccncc5)CC4)ccc23)cc1
93	c1ccc(CN2CCC(Nc3ncnc4cc(OCC5CCN(CCNc6ccnc7ccccc67)CC5)ccc34)CC2)cc1
45	c1ccc(CCCNc2ncnc3cc(OCC4CCN(CCNc5cnc6ccccc6c5)CC4)ccc23)cc1
0	FC(F)(F)c1ccc2c(NCCN3CCC(COc4ccc5c(NCCCc6ccccc6)ncnc5c4)CC3)ccnc2c1
67	c1ccc(CCCNc2ncnc3cc(OCCN4CCN(CCNc5ccnc6ccccc56)CC4)ccc23)cc1
65	Nc1ccc(NCCN2CCC(COc3ccc4c(NCCCc5ccccc5)ncnc4c3)CC2)cc1
0	COCn1ccc(NCCNCCCOc2ccc3c(NCCCc4ccccc4)ncnc3c2)nc1=O

target: T1, DNA (cytosine-5)-methyltransferase 3A; test: Inhibition of human DNMT3A catalytic domain using AdoMet assessed as reduction of methylation in 5'-biotin/3' 6-carboxyfluorescein labeled DNA duplex at CpG site at 10 uM after 1 hr by fluorescence assay relative to control

inhibition [%]	SMILES
70	Clc1ccc2c(NCCN3CCC(COc4ccc5c(NCCCc6ccccc6)ncnc5c4)CC3)ccnc2c1
68	Nc1ccc(CCNc2ncnc3cc(OCC4CCN(CCNc5ccnc6ccccc56)CC4)ccc23)cc1
47	c1ccc(CCCNc2ncnc3cc(OCC4CCN(CCNc5ccc6ncccc6c5)CC4)ccc23)cc1
50	c1ccc(CCCNc2ncnc3cc(OCC4CCN(CCNc5cccc6ncccc56)CC4)ccc23)cc1
0	FC(F)(F)c1cc(NCCN2CCC(COc3ccc4c(NCCCc5ccccc5)ncnc4c3)CC2)c2ccccc2n1
0	NS(=O)(=O)c1ccc(CCNc2ncnc3cc(OCC4CCN(CCNc5ccnc6ccccc56)CC4)ccc23)cc1
62	c1ccc(CN2CCN(CCNc3ncnc4cc(OCC5CCN(CCNc6ccnc7ccccc67)CC5)ccc34)CC2)cc1
10	COCn1ccc(NCCN2CCC(COc3ccc4c(NCCCc5ccccc5)ncnc4c3)CC2)nc1=O
70	Cc1cc(Nc2ccc(NC(=O)c3ccc(Nc4ccnc5ccccc45)cc3)cc2)nc(N)n1
54	O=[N+]([O-])c1ccc(CCNc2ncnc3cc(OCC4CCN(CCNc5ccnc6ccccc56)CC4)ccc23)cc1
0	c1ccc(CCCNc2ncnc3cc(OCC4CCN(c5ccnc6ccccc56)CC4)ccc23)cc1
28	CCCNc1ncnc2cc(OCC3CCN(CCNc4ccnc5ccccc45)CC3)ccc12
0	Fc1ccc2nccc(NCCN3CCC(COc4ccc5c(NCCCc6ccccc6)ncnc5c4)CC3)c2c1
59	c1ccc(CCCNc2ncnc3cc(OCCCNCCNc4ccnc5ccccc45)ccc23)cc1
66	Oc1cc2nccc(NCCN3CCC(COc4ccc5c(NCCCc6ccccc6)ncnc5c4)CC3)c2cc1O
74	Cn1ccc2cc(NCCN3CCC(COc4ccc5c(NCCCc6ccccc6)ncnc5c4)CC3)ccc21
47	c1ccc(CCCNc2ncnc3cc(OCC4CCN(CCNc5ccncc5)CC4)ccc23)cc1
72	c1ccc(CN2CCC(Nc3ncnc4cc(OCC5CCN(CCNc6ccnc7ccccc67)CC5)ccc34)CC2)cc1
38	c1ccc(CCCNc2ncnc3cc(OCC4CCN(CCNc5cnc6ccccc6c5)CC4)ccc23)cc1
0	FC(F)(F)c1ccc2c(NCCN3CCC(COc4ccc5c(NCCCc6ccccc6)ncnc5c4)CC3)ccnc2c1
37	c1ccc(CCCNc2ncnc3cc(OCCN4CCN(CCNc5ccnc6ccccc56)CC4)ccc23)cc1
37	Nc1ccc(NCCN2CCC(COc3ccc4c(NCCCc5ccccc5)ncnc4c3)CC2)cc1
0	COCn1ccc(NCCNCCCOc2ccc3c(NCCCc4ccccc4)ncnc3c2)nc1=O

target: T2, DNA (cytosine-5)-methyltransferase 1 (Homo sapiens, UniProt P26358); test: Inhibition of full length His-tagged human DNMT1 using SAM/[methyl-3H]SAM assessed as reduction of methylation in biotinylated hemimethylated DNA duplex at 32 uM after 1 hr by scintillation counting method relative to control
T2 sequence (P26358 whole entry): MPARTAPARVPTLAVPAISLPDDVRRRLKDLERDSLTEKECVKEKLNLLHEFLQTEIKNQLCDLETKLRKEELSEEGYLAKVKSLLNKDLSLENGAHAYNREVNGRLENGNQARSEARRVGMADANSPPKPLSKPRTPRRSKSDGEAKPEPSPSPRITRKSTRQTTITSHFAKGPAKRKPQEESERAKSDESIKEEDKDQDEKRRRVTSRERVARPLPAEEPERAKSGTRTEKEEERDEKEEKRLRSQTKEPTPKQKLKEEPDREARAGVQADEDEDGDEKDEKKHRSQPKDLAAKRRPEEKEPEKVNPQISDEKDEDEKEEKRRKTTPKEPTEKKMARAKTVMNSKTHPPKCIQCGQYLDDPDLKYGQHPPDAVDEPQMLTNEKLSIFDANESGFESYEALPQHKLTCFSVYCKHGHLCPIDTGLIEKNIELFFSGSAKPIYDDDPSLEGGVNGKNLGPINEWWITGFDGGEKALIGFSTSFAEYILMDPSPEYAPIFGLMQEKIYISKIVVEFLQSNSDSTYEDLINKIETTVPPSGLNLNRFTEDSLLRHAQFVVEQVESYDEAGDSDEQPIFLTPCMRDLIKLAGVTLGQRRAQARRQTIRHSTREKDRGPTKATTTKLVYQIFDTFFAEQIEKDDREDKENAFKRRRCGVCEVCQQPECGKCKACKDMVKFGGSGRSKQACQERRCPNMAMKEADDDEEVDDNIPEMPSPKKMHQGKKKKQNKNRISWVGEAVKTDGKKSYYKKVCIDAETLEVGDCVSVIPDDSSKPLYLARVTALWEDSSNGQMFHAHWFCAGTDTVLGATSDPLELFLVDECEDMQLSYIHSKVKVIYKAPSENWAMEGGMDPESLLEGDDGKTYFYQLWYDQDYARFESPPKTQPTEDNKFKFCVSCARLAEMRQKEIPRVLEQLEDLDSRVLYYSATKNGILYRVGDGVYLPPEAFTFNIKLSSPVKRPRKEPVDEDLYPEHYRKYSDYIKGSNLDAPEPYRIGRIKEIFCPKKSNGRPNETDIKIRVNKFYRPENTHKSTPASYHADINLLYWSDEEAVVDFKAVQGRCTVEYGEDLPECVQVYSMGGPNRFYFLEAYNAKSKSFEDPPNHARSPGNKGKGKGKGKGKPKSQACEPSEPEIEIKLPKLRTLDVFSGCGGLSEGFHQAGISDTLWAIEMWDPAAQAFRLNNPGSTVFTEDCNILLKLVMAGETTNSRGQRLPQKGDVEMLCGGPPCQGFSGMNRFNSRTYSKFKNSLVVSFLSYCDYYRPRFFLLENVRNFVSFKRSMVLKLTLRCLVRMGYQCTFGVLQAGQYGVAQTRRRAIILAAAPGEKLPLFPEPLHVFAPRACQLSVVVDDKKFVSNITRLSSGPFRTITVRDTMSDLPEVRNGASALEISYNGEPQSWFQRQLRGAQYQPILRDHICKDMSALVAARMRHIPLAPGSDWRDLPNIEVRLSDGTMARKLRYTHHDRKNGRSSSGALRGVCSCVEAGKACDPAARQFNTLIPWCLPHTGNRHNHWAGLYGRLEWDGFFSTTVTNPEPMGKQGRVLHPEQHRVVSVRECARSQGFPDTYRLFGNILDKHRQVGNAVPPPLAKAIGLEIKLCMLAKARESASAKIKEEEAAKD

inhibition [%]	SMILES
33	Clc1ccc2c(NCCN3CCC(COc4ccc5c(NCCCc6ccccc6)ncnc5c4)CC3)ccnc2c1
59	Nc1ccc(CCNc2ncnc3cc(OCC4CCN(CCNc5ccnc6ccccc56)CC4)ccc23)cc1
0	c1ccc(CCCNc2ncnc3cc(OCC4CCN(CCNc5ccc6ncccc6c5)CC4)ccc23)cc1
0	c1ccc(CCCNc2ncnc3cc(OCC4CCN(CCNc5cccc6ncccc56)CC4)ccc23)cc1
0	FC(F)(F)c1cc(NCCN2CCC(COc3ccc4c(NCCCc5ccccc5)ncnc4c3)CC2)c2ccccc2n1
59	NS(=O)(=O)c1ccc(CCNc2ncnc3cc(OCC4CCN(CCNc5ccnc6ccccc56)CC4)ccc23)cc1
0	c1ccc(CN2CCN(CCNc3ncnc4cc(OCC5CCN(CCNc6ccnc7ccccc67)CC5)ccc34)CC2)cc1
0	COCn1ccc(NCCN2CCC(COc3ccc4c(NCCCc5ccccc5)ncnc4c3)CC2)nc1=O
0	O=[N+]([O-])c1ccc(CCNc2ncnc3cc(OCC4CCN(CCNc5ccnc6ccccc56)CC4)ccc23)cc1
0	c1ccc(CCCNc2ncnc3cc(OCC4CCN(c5ccnc6ccccc56)CC4)ccc23)cc1
0	CCCNc1ncnc2cc(OCC3CCN(CCNc4ccnc5ccccc45)CC3)ccc12
0	Fc1ccc2nccc(NCCN3CCC(COc4ccc5c(NCCCc6ccccc6)ncnc5c4)CC3)c2c1
0	c1ccc(CCCNc2ncnc3cc(OCCCNCCNc4ccnc5ccccc45)ccc23)cc1
36	Oc1cc2nccc(NCCN3CCC(COc4ccc5c(NCCCc6ccccc6)ncnc5c4)CC3)c2cc1O
21	Cn1ccc2cc(NCCN3CCC(COc4ccc5c(NCCCc6ccccc6)ncnc5c4)CC3)ccc21
65	c1ccc(CN2CCC(Nc3ncnc4cc(OCC5CCN(CCNc6ccnc7ccccc67)CC5)ccc34)CC2)cc1
0	c1ccc(CCCNc2ncnc3cc(OCC4CCN(CCNc5cnc6ccccc6c5)CC4)ccc23)cc1
0	FC(F)(F)c1ccc2c(NCCN3CCC(COc4ccc5c(NCCCc6ccccc6)ncnc5c4)CC3)ccnc2c1
0	c1ccc(CCCNc2ncnc3cc(OCCN4CCN(CCNc5ccnc6ccccc56)CC4)ccc23)cc1
0	Nc1ccc(NCCN2CCC(COc3ccc4c(NCCCc5ccccc5)ncnc4c3)CC2)cc1
0	COCn1ccc(NCCNCCCOc2ccc3c(NCCCc4ccccc4)ncnc3c2)nc1=O

target: T2, DNA (cytosine-5)-methyltransferase 1; test: Inhibition of full length His-tagged human DNMT1 using SAM/[methyl-3H]SAM assessed as reduction of methylation in biotinylated hemimethylated DNA duplex at 100 uM after 1 hr by scintillation counting method relative to control

inhibition [%]	SMILES
79	Clc1ccc2c(NCCN3CCC(COc4ccc5c(NCCCc6ccccc6)ncnc5c4)CC3)ccnc2c1
97	Nc1ccc(CCNc2ncnc3cc(OCC4CCN(CCNc5ccnc6ccccc56)CC4)ccc23)cc1
16	c1ccc(CCCNc2ncnc3cc(OCC4CCN(CCNc5ccc6ncccc6c5)CC4)ccc23)cc1
0	c1ccc(CCCNc2ncnc3cc(OCC4CCN(CCNc5cccc6ncccc56)CC4)ccc23)cc1
13	FC(F)(F)c1cc(NCCN2CCC(COc3ccc4c(NCCCc5ccccc5)ncnc4c3)CC2)c2ccccc2n1
100	NS(=O)(=O)c1ccc(CCNc2ncnc3cc(OCC4CCN(CCNc5ccnc6ccccc56)CC4)ccc23)cc1
71	c1ccc(CN2CCN(CCNc3ncnc4cc(OCC5CCN(CCNc6ccnc7ccccc67)CC5)ccc34)CC2)cc1
11	COCn1ccc(NCCN2CCC(COc3ccc4c(NCCCc5ccccc5)ncnc4c3)CC2)nc1=O
72	O=[N+]([O-])c1ccc(CCNc2ncnc3cc(OCC4CCN(CCNc5ccnc6ccccc56)CC4)ccc23)cc1
6	c1ccc(CCCNc2ncnc3cc(OCC4CCN(c5ccnc6ccccc56)CC4)ccc23)cc1
95	CCCNc1ncnc2cc(OCC3CCN(CCNc4ccnc5ccccc45)CC3)ccc12
79	Fc1ccc2nccc(NCCN3CCC(COc4ccc5c(NCCCc6ccccc6)ncnc5c4)CC3)c2c1
90	c1ccc(CCCNc2ncnc3cc(OCCCNCCNc4ccnc5ccccc45)ccc23)cc1
81	Oc1cc2nccc(NCCN3CCC(COc4ccc5c(NCCCc6ccccc6)ncnc5c4)CC3)c2cc1O
50	Cn1ccc2cc(NCCN3CCC(COc4ccc5c(NCCCc6ccccc6)ncnc5c4)CC3)ccc21
34	c1ccc(CCCNc2ncnc3cc(OCC4CCN(CCNc5ccncc5)CC4)ccc23)cc1
81	c1ccc(CN2CCC(Nc3ncnc4cc(OCC5CCN(CCNc6ccnc7ccccc67)CC5)ccc34)CC2)cc1
12	c1ccc(CCCNc2ncnc3cc(OCC4CCN(CCNc5cnc6ccccc6c5)CC4)ccc23)cc1
48	FC(F)(F)c1ccc2c(NCCN3CCC(COc4ccc5c(NCCCc6ccccc6)ncnc5c4)CC3)ccnc2c1
83	c1ccc(CCCNc2ncnc3cc(OCCN4CCN(CCNc5ccnc6ccccc56)CC4)ccc23)cc1
0	Nc1ccc(NCCN2CCC(COc3ccc4c(NCCCc5ccccc5)ncnc4c3)CC2)cc1
0	COCn1ccc(NCCNCCCOc2ccc3c(NCCCc4ccccc4)ncnc3c2)nc1=O

— ChEMBL document CHEMBL4014314, “Rational Design of Bisubstrate-Type Analogues as Inhibitors of DNA Methyltransferases in Cancer Cells” (J Med Chem, 2017)
